Where two headings read alike, the source gives them in different places.
What was measured:
[1] = tested on: Key Broadleaf Weed and Crop Species; assay: Post-emergent Test II herbicidal activity (Table 5); format: in vivo; conditions: post-emergence, 336 h, 14 days after application; for pest or weed control at 70 g/ha: application rate 70 g ai/ha; for pest or weed control at 140 g/ha: application rate 140 g ai/ha
Outline: (§1)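 Injury was rated visually 14 d after treatment on a 0–100% scale against untreated controls. Test compounds, formulated with crop oil concentrate and surfactant and serially diluted down to 1/16× of the top rate, were applied by track sprayer at 187 L/ha onto first- to second-true-leaf seedlings.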

[2] = tested on: Key Grass and Sedge Weeds as well as Grass Crops; assay: Post-emergent Test II herbicidal activity (Table 6); format: in vivo; conditions: post-emergence, 336 h; for pest or weed control at 70 g/ha: 70 g ai/ha; for pest or weed control at 140 g/ha: 140 g ai/ha
Outline: as §1

[3] = ABUTH: velvetleaf (Abutilon theophrasti), read-out: Visual Growth Reduction (%) 14 Days After Application, ABUTH
[4] = AMARE: redroot pigweed (Amaranthus retroflexus), read-out: Visual Growth Reduction (%) 14 Days After Application, AMARE
[5] = BRSNN: oilseed-rape, canola (Brassica napus), read-out: Visual Growth Reduction (%) 14 Days After Application, BRSNN
[6] = CHEAL: lambsquarters (Chenopodium album), read-out: Visual Growth Reduction (%) 14 Days After Application, CHEAL
[7] = EPHHL: wild poinsettia (Euphorbia heterophylla), read-out: Visual Growth Reduction (%) 14 Days After Application, EPHHL
[8] = HELAN: sunflower (Helianthus annuus), read-out: Visual Growth Reduction (%) 14 Days After Application, HELAN
[9] = VIOTR: wild pansy (Viola tricolor), read-out: Visual Growth Reduction (%) 14 Days After Application, VIOTR
[10] = CYPES: yellow nutsedge (Cyperus esculentus), read-out: Visual Growth Reduction (%) 14 Days After Application, CYPES
[11] = DIGSA: crabgrass (Digitaria sanguinalis), read-out: Visual Growth Reduction (%) 14 Days After Application, DIGSA
[12] = ECHCG: barnyardgrass (Echinochloa crus-galli), read-out: Visual Growth Reduction (%) 14 Days After Application, ECHCG
[13] = ORYSA: rice (Oryza sativa), crop, read-out: Visual Growth Reduction (%) 14 Days After Application, ORYSA
[14] = SETFA: giant foxtail (Setaria faberi), read-out: Visual Growth Reduction (%) 14 Days After Application, SETFA
[15] = SORVU: grain sorghum (Sorghum vulgare), read-out: Visual Growth Reduction (%) 14 Days After Application, SORVU
[16] = TRZSS (wheat, Triticum aestivum), crop, read-out: Visual Growth Reduction (%) 14 Days After Application, TRZSS
[17] = ZEAMX: maize, corn (Zea mays), crop, read-out: Visual Growth Reduction (%) 14 Days After Application, ZEAMX

melting point: 131 to 132 °C
Structure (SMILES): COC(=O)c1nc(-c2ccc(C(F)(F)F)c(F)c2F)c(F)c(N)c1Cl [Compound 149]
pest or weed control at 70 g/ha [1, 3]: 95 to 100% | pest or weed control at 140 g/ha [1, 3]: 95 to 100% | pest or weed control at 70 g/ha [1, 4]: 95 to 100% | pest or weed control at 140 g/ha [1, 4]: 95 to 100% | pest or weed control at 70 g/ha [1, 5]: 85 to 94% | pest or weed control at 140 g/ha [1, 5]: 95 to 100% | pest or weed control at 70 g/ha [1, 6]: 95 to 100% | pest or weed control at 140 g/ha [1, 6]: 95 to 100% | pest or weed control at 70 g/ha [1, 7]: 95 to 100% | pest or weed control at 140 g/ha [1, 7]: 95 to 100% | pest or weed control at 70 g/ha [1, 8]: 95 to 100% | pest or weed control at 140 g/ha [1, 8]: 95 to 100% | pest or weed control at 70 g/ha [1, 9]: 85 to 94% | pest or weed control at 140 g/ha [1, 9]: 85 to 94% | pest or weed control at 70 g/ha [2, 10]: 95 to 100% | pest or weed control at 140 g/ha [2, 10]: 95 to 100% | pest or weed control at 70 g/ha [2, 11]: 30 to 44% | pest or weed control at 140 g/ha [2, 11]: 30 to 44% | pest or weed control at 70 g/ha [2, 12]: 95 to 100% | pest or weed control at 140 g/ha [2, 12]: 95 to 100% | pest or weed control at 70 g/ha [2, 13]: 0 to 29% | pest or weed control at 140 g/ha [2, 13]: 0 to 29% | pest or weed control at 70 g/ha [2, 14]: 30 to 44% | pest or weed control at 140 g/ha [2, 14]: 30 to 44% | pest or weed control at 70 g/ha [2, 15]: 95 to 100% | pest or weed control at 140 g/ha [2, 15]: 95 to 100% | pest or weed control at 70 g/ha [2, 16]: 30 to 44% | pest or weed control at 140 g/ha [2, 16]: 45 to 59% | pest or weed control at 70 g/ha [2, 17]: 75 to 84% | pest or weed control at 140 g/ha [2, 17]: 85 to 94%
